{
  "source": "paper PMC6856805",
  "about": "“Environmental Risk Assessment for the Active Pharmaceutical Ingredient Mycophenolic Acid in European Surface Waters” (Environmental Toxicology and Chemistry, 2019)",
  "key": {"[1]": {"design": "method as in T. Pfister, unpublished data", "details": "ref T. Pfister, unpublished data, cited from earlier work"}, "[2]": {"tested_on": "humans", "assay": "Derivation of acceptable daily exposure (ADE)", "design": "species or system human", "procedure": "Similarly, potential risk for humans from secondary poisoning is assessed by using the acceptable daily exposure (ADE) value for MPA (T. Pfister, unpublished data), which considers toxicological data as well as human experience and covers all routes of uptake, including sensitive subpopulations, over 365 d/annum, with the combined worst‐case uptake through drinking water and fish. No removal of MPA in drinking water production is assumed, but a default intake of 2 L water and 115 g fish/person and day is assumed (European Commission 2011; Murray‐Smith et al. 2012). This combined uptake is then compared with the ADE.\nThe ADE was derived based on the available nonclinical and clinical data, with the critical effects identified as 1) immunosuppression and secondary effects thereof and 2) teratogenicity; in addition, the relevance of positive results in genotoxicity tests was assessed (T. Pfister, unpublished data). Based on the NOAEL of 2 mg/kg body weight/d in the 12‐mo oral toxicity study in the rat, an ADE was derived by multiplying this NOAEL by a default body weight of 60 kg for humans and dividing by adjustment factors, namely, 6.2 for extrapolation from rats to humans, 10 for variability between individuals, 1 for study duration of 1 yr for rodents, 5 for severity of systemic toxicity (hematopoiesis, immunotoxicity), and 3 for use of an established NOAEL instead of an NOEL; this derivation results in a first ADE of 0.1 mg MPM/60‐kg person/d. […] The weak clastogenic potential observed at higher doses was considered to be irrelevant at these exposure levels. Because the first ADE was lower than, and therefore also protective of, the second, 0.1 mg MPM/60‐kg person/d was selected as the ADE. Stoichiometrically, this ADE for MPM corresponds to 0.0739 mg MPA/d, which was rounded to 0.075 mg or 75 µg MPA/d. The MTDI for an otter was derived by normalizing the ADE for a 60‐kg human to the otter with a default body mass of 10 kg, resulting in an MTDI of 0.0125 mg or 12.5 µg MPA/10‐kg otter/d."}, "[3]": {"design": "method as in Lee et al. 1990; Shipkova et al. 2005", "details": "in the liver and intestine; ref Lee et al. 1990; Shipkova et al. 2005; cited from earlier work"}, "[4]": {"tested_on": "rats", "design": "method as in T. Pfister, unpublished data", "details": "oral, ref T. Pfister, unpublished data; cited from earlier work"}, "[5]": {"tested_on": "mice", "design": "method as in T. Pfister, unpublished data", "details": "oral, 104 wk at 25, 75, or 180 mg/kg body weight/d, ref T. Pfister, unpublished data; cited from earlier work"}, "[6]": {"tested_on": "rats", "design": "method as in T. Pfister, unpublished data", "details": "at least 104 wk at 3, 7, or 15 mg/kg body weight/d, ref T. Pfister, unpublished data; cited from earlier work"}, "[7]": {"tested_on": "mice with large cell lymphoma", "design": "method as in T. Pfister, unpublished data", "details": "ref T. Pfister, unpublished data; cited from earlier work"}, "[8]": {"assay": "River sediment/water fate test (US FDA Guideline 3.11) with 14C-MPM", "details": "all systems and dosings", "protocol": "A river sediment/water fate test with two different ^14C-MPMs (one carboxyl-^14C-labelled, the other morpholine-^14C-labelled) was commissioned in 1994 by Syntex according to US FDA Guideline 3.11 in compliance with GLP (Yan 1995). Both carboxyl-^14C-labelled and morpholine-^14C-labelled MPM were tested separately for biodegradability in river water and sediment at dosing concentrations of 1 and 5 mg MPM/L, in parallel test set-ups in the dark at 21±1 °C over 64 days. Air was drawn in flow-through systems first through a 2 N KOH vessel to remove natural CO2, then through the test vessel and subsequently through two sequential 2 N KOH traps for ^14CO2 capture. Samples from the latter traps were taken for duplicate ^14CO2 analysis by LSC on days 1, 2, 3, 7, 14, 21, 28, 35, 49 and 64. Test medium samples for HPLC analysis were taken on days 0.01 (15 min after dosing), 1, 3, 7, 14, 21, 35, 49 and 64. Sediment samples were taken at the end for combustion and ^14CO2 analysis."}, "[9]": {"tested_on": "rat", "details": "in vivo, po; cited from earlier work"}, "[10]": {"tested_on": "lymphocyte and erythrocyte systems", "design": "method as in T. Pfister, unpublished data", "details": "ref T. Pfister, unpublished data; cited from earlier work"}, "[11]": {"tested_on": "rats", "details": "cited from earlier work"}, "[12]": {"assay": "OECD test guideline 301F ready biodegradability test"}, "[13]": {"tested_on": "rabbits", "design": "method as in T. Pfister, unpublished data", "details": "oral, ref T. Pfister, unpublished data; cited from earlier work"}, "[14]": {"tested_on": "Cyprinus carpio", "design": "method as in FASS 2018", "details": "OECD 203; ref FASS 2018; cited from earlier work"}, "[15]": {"design": "method as in FASS 2018", "details": "OECD 209; ref FASS 2018; cited from earlier work"}, "[16]": {"tested_on": "D. magna", "design": "method as in FASS 2018", "details": "OECD 202; ref FASS 2018; cited from earlier work"}, "[17]": {"assay": "OECD test guideline 314B activated sludge biodegradation simulation test", "source_text": "Mineralization comprises evolved CO2 (detected in the traps) as well as CO2 dissolved in the sludge. The latter was highest at day 2 and decreased afterward, whereas the amount of evolved CO2 increased continuously until the end of the study. […] At no time point was a noteworthy amount of radioactivity (>2% iRR throughout the test period) detected in the liquor after extraction. Radioactivity in the solids extract was highest at day 0 (5.5% iRR) and decreased afterward to 0.3% iRR after 28 d.\nBased on this k biodeg and physicochemical properties for MPA, SimpleTreat 4.0 (Struijs 2015) calculated a removal of 12% in STPs, mostly through biodegradation (0.27% in the primary settler and 11.5% in the aeration tank), with a small fraction of 0.13% adsorbed to sludge, in agreement with the OECD test guideline106 (Organisation for Economic Co‐operation and Development 2000) adsorption results mentioned in the previous paragraph (V. Halász‐Laky, unpublished data). […] A high degradation rate is supported by data from Franquet‐Griell et al. (2017b), who measured STP influents and effluents and compared solid phase extraction and macroporous ceramic passive samplers in Spain. […]"}},
  "data": [
    {"compound": "COc1c(C)c2c(c(O)c1C/C=C(\\C)CCC(=O)OCCN1CCOCC1)C(=O)OC2", "note": "[MPM, mycophenolate mofetil]", "values": [
      {"measurement": "clastogenicity", "setting": "[1]; extended exposure, only at highly cytotoxic dose levels", "value": "possesses a clastogenic potential"},
      {"measurement": "point mutations or primary DNA damage", "setting": "[1]; presence or absence of metabolic activation", "value": "did not induce point mutations or primary DNA damage"},
      {"measurement": "first ADE (selected as the ADE)", "setting": "[2]; from rat 12‐mo NOAEL", "value": 0.1, "unit": "mg MPM/60‐kg person/d"},
      {"measurement": "second ADE", "setting": "[2]; from rat teratogenicity NOEL", "value": 0.19, "unit": "mg MPM/60‐kg person/d"},
      {"measurement": "hydrolysis of prodrug", "setting": "[3]", "value": "rapidly and fully hydrolyzed to MPA"},
      {"measurement": "no‐observed‐effect level (NOEL) for teratogenic changes", "setting": "[4]", "value": 2, "unit": "mg/kg body weight/d"},
      {"measurement": "carcinogenicity", "setting": "[5]", "value": "not carcinogenic"},
      {"measurement": "carcinogenicity", "setting": "[6]", "value": "not carcinogenic"},
      {"measurement": "survival times", "setting": "[7]", "value": "prolonged survival times"},
      {"measurement": "time to full primary degradation", "setting": "[8]", "value": "≤ 7", "unit": "days"},
      {"measurement": "no‐observed‐adverse‐effect level (NOAEL)", "setting": "[9]", "value": 2, "unit": "mg/kg body weight/d"},
      {"measurement": "in vitro antitumour effects", "setting": "[10]", "value": "in vitro antitumour effects"},
      {"measurement": "dose causing malformations in the pups in the absence of maternal toxicity", "setting": "[11]; highest dose, oral, rats, ref T. Pfister, unpublished data", "value": 4.5, "unit": "mg/kg body weight/d"},
      {"measurement": "NOAEL, female fertility and reproduction study", "setting": "[11]; rat, in vivo, po", "value": 1.5, "unit": "mg/kg body weight/d"},
      {"measurement": "effect on fertility", "setting": "[11]; rats, oral, ref T. Pfister, unpublished data", "value": "no effect on fertility"},
      {"measurement": "inhibition of activated sludge activity", "setting": "[12]; nominal 100 mg MPM/L", "value": "no inhibition"},
      {"measurement": "ready biodegradability result", "setting": "[12]; nominal 100 mg/L", "value": "primary degradation by HPLC without oxygen uptake"},
      {"measurement": "no‐observed‐effect level (NOEL) for teratogenic changes", "setting": "[13]", "value": 30, "unit": "mg/kg body weight/d"}
    ]},
    {"compound": "COc1c(C)c2c(c(O)c1C/C=C(\\C)CCC(=O)[O-])C(=O)OC2.[Na+]", "note": "[sodium‐MPA]", "values": [
      {"measurement": "acute fish 50% lethal concentration (LC50)", "setting": "[14]", "value": "> 100", "unit": "µg/mL"},
      {"measurement": "3‐h EC50, respiration inhibition", "setting": "[15]", "value": 2213, "unit": "µg/mL"},
      {"measurement": "EC10, respiration inhibition", "setting": "[15]", "value": 69, "unit": "µg/mL"},
      {"measurement": "acute daphnid EC50", "setting": "[16]", "value": "> 100", "unit": "µg/mL"}
    ]},
    {"compound": "COc1c(C)c2c(c(O)c1C/C=C(\\C)CCC(=O)O)C(=O)OC2", "note": "[^14C‐MPA, Mycophenolic acid, [carboxyl‐14C]]", "values": [
      {"measurement": "degradation in activated sludge", "setting": "[17]", "value": "> 80", "unit": "%"}
    ]}
  ]
}
